One test relates to K. pneumoniae DSM 26371. Put plainly: MIC 50, broth micro-dilution, DSM strains. The class given is cell-based, Klebsiella pneumoniae. The text has this: (§1) 3.2 Against Selected Bacteria of the ESKAPE Panel and Enterococcus faecalis (DSM Strains)
(§2) Tested reference compounds. Amikacin sulfate (Cat. No. 01693, Chem-Impex), Gentamicin sulfate (Cat. No. G4918, Sigma Aldrich).
(§3) Microbial strains. Enterococcus faecalis DSM 2570, Klebsiella pneumoniae DSM 26371, Acinetobacter baumannii DSM 105126, Enterobacter cloacae 3MRGN (clinical bronchial aspirate isolate).
(§4) Culture media and equipment. BBL™ Mueller Hinton Broth 2 (Lot. BCBW1143, Cat. No. 70192, Sigma); Trypcase Soy Blood-agar plates (Cat. No. 43001, Biomérieux); Cryoinstant (contains 15% glycerol; Cat. No. 822070ZA, VWR International); GasPak™ EZ Standard Incubation Container (Cat. No. 260671, Becton Dickinson); GasPak™ EZ Campy Container System Sachets (Cat. No. 260680, Becton Dickinson); 96-well deep well plate, 1 mL (Cat. No. 0030506.200, Eppendorf); Plate lid (Cat. No. 0030131.525, Eppendorf); 96-well plate, F-bottom (Cat. No. 260860, Nunc); Incubator (Sartorius Certomat BS-1); Laminar flow (Heraeus HS12); UV/VIS meter (Perkin Elmer Lambda Bio+); Platereader (Tecan Infinite M200 Pro).
(§5) Compound preparation. Compounds were prepared in MH2 media at a concentration of 5 mM and stored at 4° C. For testing, solutions of 128 μM were prepared in MH2, for tests against E. faecalis a solution of 512 μM was prepared. Out of these working solutions, 400 μL was transferred to wells in the first column of 96-well deep well plates. Each compound was transferred in triplicate. Plates were previously filled with 200 μL of MH2 media in all wells except for the wells in the first column. After compound and antibiotic addition, the compounds were serial two-fold diluted by transferring 200 μL from the first to the second column, then from the second to the third column and so on. Finally, 200 μL was removed from the last column.
(§6) Inoculum preparation. Microorganisms used were all revived from 15% glycerol storage in Croinstant tubes at −28° C. by plating them on blood agar plates. A. baumanni, and E. cloacae were grown aerobically at 37° C., E. faecalis was grown microaerophilically at 37° C., and K. pneumoniae was grown aerobically at 37° C. Plates were stored at 4° C. for up to two weeks, after which new plates were prepared from −28° C. A single colony was inoculated in MH2 media and grown at 37° C. and 200 rpm to an optical density (measured by UV/Vis spectroscopy) of 0.6-0.8 at 600 nm. Out of these suspensions, actual inoculums were prepared by diluting them to an optical density of 0.1 in MH2 media. From these inoculums, 200 μL was transferred to each well, resulting in a final compound concentration range of 64 μM-31.3 nM for, K. pneumoniae, A. baumanni, and E. cloacae, and 256 μM-125 nM for E. faecalis. Plates inoculated with E. faecalis were placed inside a GasPak™ Container System with GasPak™ Campy Container System sachets. All plates were incubated at 200 rpm for 18 h under the microorganism culturing conditions mentioned above.
(§7) MIC determination. After 18 h of growth, 200 μL was transferred to a 96-well F-bottom plate. The optical density was determined by a plate reader at 600 nm, with 10 s shaking before reading. Triplicate measurements were averaged, and a growth curve was plotted in Excel. The first column in which the growth reached half the value of maximum growth was determined as the MIC50 value for that particular compound.
(§8) MIC50. The MIC50 of a compound was assigned at which the bacterial growth reached half the value of maximum growth.
On the technique in general: Broth dilution looks for growth in wells or tubes with falling amounts of substance.

The next test relates to E. faecalis DSM 2570. Kind of test: MIC 50, broth micro-dilution, DSM strains. The class given is cell-based, Enterococcus faecalis.
Description: as §1, §2, §3, §4, §5, §6, §7, §8

[1] abbreviates: Klebsiella pneumoniae, DSM26371, K. pneumoniae DSM 26371, read-out: MIC 50.
[2] abbreviates: Enterococcus faecalis, DSM2570, read-out: MIC 50.

Structures are written as SMILES. ≈ marks a conversion by molar mass, not a printed value. Read-outs that look alike come from different tables or passages of the source. A value given as a limit tells only on which side of the number the result lay.

Regarding `N=C(NCCO)NC1[C@@H](O)C(OC2[C@@H](F)[C@H](O[C@H]3OC(CN)[C@@H](O)CC3N)C(N)C[C@H]2NC(=O)[C@@H](O)CCN)O[C@H](CO)[C@H]1O` (stereo partly drawn) [ABX5029, Tobra-AHB-F-Gua 2-hydroxy-ethyl], the results for the MIC50 in the test on K. pneumoniae DSM 26371 (setting [1]) and with E. faecalis DSM 2570 (setting [2]) were 0.125 to 0.25 µM (≈ 0.0821 to 0.164 µg/mL) and 64 µM (≈ 42 µg/mL), respectively.

In the case of `N=C(NCC1CCCO1)NC1[C@@H](O)C(OC2[C@@H](F)[C@H](O[C@H]3OC(CN)[C@@H](O)CC3N)C(N)C[C@H]2NC(=O)[C@@H](O)CCN)O[C@H](CO)[C@H]1O` (stereo partly drawn) [ABX5046, Tobra-AHB-F-Gua tetrahydrofuran-2-yl methyl], the MIC50 in the test on K. pneumoniae DSM 26371 (setting [1]) was 0.5 µM (≈ 0.348 µg/mL); in the test with E. faecalis DSM 2570 (setting [2]), 8 to 16 µM (≈ 5.57 to 11.1 µg/mL).

As for `N=C(N)NC1[C@@H](O)C(OC2[C@@H](F)[C@H](O[C@H]3OC(CN)[C@@H](O)[C@H](O)C3N)C(N)C[C@H]2NC(=O)[C@@H](O)CCN)O[C@H](CO)[C@H]1O` (stereo partly drawn) [ABX4004, 3′epi-KanaB-AHB-F-Gua], the “MIC50” value with K. pneumoniae DSM 26371 (K. pneumoniae DSM 26371) is 0.25 µM (≈ 0.157 µg/mL); against E. faecalis DSM 2570, 16 to 32 µM.

Regarding `N=C(NCc1ccncc1)NC1[C@@H](O)C(OC2[C@@H](F)[C@H](O[C@H]3OC(CN)[C@@H](O)CC3N)C(N)C[C@H]2NC(=O)[C@@H](O)CCN)O[C@H](CO)[C@H]1O` (stereo partly drawn) [ABX5048, Tobra-AHB-F-Gua pyridin-4-yl methyl], the MIC50 worked out at 0.5 µM (≈ 0.352 µg/mL) with K. pneumoniae DSM 26371 (setting [1]) and 8 µM (≈ 5.63 µg/mL) in the test with E. faecalis DSM 2570 (setting [2]).

Consider `NCC[C@H](O)C(=O)N[C@@H]1CC(N)[C@@H](O[C@H]2OC(CN)[C@@H](O)[C@@H](O)C2N)[C@H](O)C1OC1O[C@H](CO)[C@@H](O)C(N)[C@H]1O` (stereo partly drawn) [ABX4002, 3′Epi-KanaB-AHB], for which the “MIC50” value in the test with K. pneumoniae DSM 26371 (K. pneumoniae DSM 26371) was 1 µM (≈ 0.585 µg/mL); in the test with E. faecalis DSM 2570, 16 to 32 µM.

As to `N=C(NCC1CC1)NC1[C@@H](O)C(OC2[C@@H](F)[C@H](O[C@H]3OC(CN)[C@@H](O)CC3N)C(N)C[C@H]2NC(=O)[C@@H](O)CCN)O[C@H](CO)[C@H]1O` (stereo partly drawn) [ABX5027, Tobra-AHB-F-Gua cyclopropylmethyl], the MIC50 in the test on K. pneumoniae DSM 26371 (setting [1]) amounted to 0.125 µM (≈ 0.0833 µg/mL); in the test on E. faecalis DSM 2570 (setting [2]), 32 µM (≈ 21.3 µg/mL).

With `N=C(N)NC1C(O)[C@@H](CO)OC(OC2C(F)[C@H](O[C@H]3OC(CN)[C@@H](O)CC3N)C(N)C[C@H]2NC(=O)[C@@H](O)CCN)[C@@H]1O` (stereo partly drawn) [ABX5006, Tobra-AHB-F-Gua], the MIC50 with K. pneumoniae DSM 26371 (setting [1]) is less than 0.25 µM; in the test with E. faecalis DSM 2570 (setting [2]), 4 to 8 µM (≈ 2.45 to 4.9 µg/mL).

On to `N=C(N)NC1[C@@H](O)C(OC2[C@@H](O)[C@H](O[C@H]3OC(CN)[C@@H](O)CC3N)C(N)C[C@H]2NC(=O)[C@@H](O)CCN)O[C@H](CO)[C@H]1O` (stereo partly drawn) [ABX5005, Tobra-AHB-Gua], for which the figures for the “MIC50” value with K. pneumoniae DSM 26371 (K. pneumoniae DSM 26371) and in the test with E. faecalis DSM 2570 were 0.25 µM (≈ 0.153 µg/mL) and 16 µM (≈ 9.77 µg/mL), respectively.

On to `N=C(NC[C@@H]1CCCN1)NC1[C@@H](O)C(OC2[C@@H](F)[C@H](O[C@H]3OC(CN)[C@@H](O)CC3N)C(N)C[C@H]2NC(=O)[C@@H](O)CCN)O[C@H](CO)[C@H]1O` (stereo partly drawn) [ABX5026, Tobra-AHB-F-Gua (S) pyrrolidine-2-yl-methyl], for which the MIC50 with K. pneumoniae DSM 26371 (setting [1]) is 0.125 µM (≈ 0.087 µg/mL); in the test on E. faecalis DSM 2570 (setting [2]), 32 µM (≈ 22.3 µg/mL).

Consider `N=C(NCc1cnc[nH]1)NC1[C@@H](O)C(OC2[C@@H](F)[C@H](O[C@H]3OC(CN)[C@@H](O)CC3N)C(N)C[C@H]2NC(=O)[C@@H](O)CCN)O[C@H](CO)[C@H]1O` (stereo partly drawn) [ABX5050, Tobra-AHB-F-Gua imidazol-5-yl methyl], for which the MIC50 in the test with K. pneumoniae DSM 26371 (setting [1]) was 0.5 µM (≈ 0.346 µg/mL); in the test on E. faecalis DSM 2570 (setting [2]), 8 to 16 µM (≈ 5.54 to 11.1 µg/mL).

Consider `N=C(NC[C@@H]1CCNC1)NC1[C@@H](O)C(OC2[C@@H](F)[C@H](O[C@H]3OC(CN)[C@@H](O)CC3N)C(N)C[C@H]2NC(=O)[C@@H](O)CCN)O[C@H](CO)[C@H]1O` (stereo partly drawn) [ABX5039, Tobra-AHB-F-Gua (R) pyrrolidine-3-ylmethyl], for which the MIC50 in the test on K. pneumoniae DSM 26371 (setting [1]) came out at 0.5 µM (≈ 0.348 µg/mL); in the test on E. faecalis DSM 2570 (setting [2]) it was 16 µM (≈ 11.1 µg/mL).

With `NCCC(O)C(=O)NC1CC(N)C(OC2OC(CN)C(O)C(O)C2N)C(O)C1OC1OC(CO)C(O)C(N)C1O` (stereo not drawn) [ABX4001, KanaB-AHB], the figures for the “MIC50” value with K. pneumoniae DSM 26371 (K. pneumoniae DSM 26371) and in the test with E. faecalis DSM 2570 were 0.5 µM (≈ 0.292 µg/mL) and 32 to 64 µM, respectively.
